According to patent US8911953B2, “TDF-related compounds and analogs thereof, analogs and bioactive fragments” (Thrasos Innovation, Inc., priority 2005, dated 2014):
“Also recorded” adds a separate entry of the source. Positions of bridges follow the written chain, without caps; N, C: chain ends. No end group written: not given here.

System: cisplatin-treated Sprague-Dawley rats
Test: Rat cisplatin model of acute kidney injury
Assay type: in vivo
Conditions: for ICAM-1 in kidney sections: anti-ICAM-1 staining; for ICAM-1 in kidney sections / proliferating cells / cellular regeneration (PCNA) / macrophages accumulating in the kidneys: b674: 2.8 mg/kg bw; for proliferating cells / cellular regeneration (PCNA): anti-PCNA staining; for macrophages accumulating in the kidneys: macrophage-specific marker
Description: The rat cisplatin model has been studied extensively and is considered a relevant model for human acute kidney injury. Kidneys from cisplatin-treated animals show little evidence of cell proliferation. In contrast, animals that are protected or are able to recover from the nephrotoxic effects of cisplatin treatment show proliferation as detected by anti-proliferating cell nuclear antigen or PCNA antibodies. This model provides a mechanism for identifying agents that can protect the kidney from inflammatory cytokine-mediated injury, as well as, in repairing organ damage. Macrophages infiltrate the kidneys of animals treated with cisplatin and this early marker of nephropathy can be detected using anti CD-68 antibodies. Agents that decrease the number of macrophages in kidneys and prevent inflammatory cell-mediated damage associated with cisplatin treatment can be detected using immuno-histological analysis. Kidney sections treated with agents that show increased expression of α-actin in smooth muscle cells (SMC) are indicative of protecting the in integrity of SMC and alleviating injurious damage to the kidney.
Male Sprague-Dawley rats (˜250 gm) are injected ip with 5 mg/kg cisplatin (1 mg/ml in water) at time zero to induce acute renal failure. In this model, clinical signs (rise in serum creatinine) peaks at 4 to 5 days. The test compound and control substances were administered iv via the tail vein as 0.5 ml slow bolus injections. The negative control substance was the vehicle (PBS pH 7.2+5% Mannitol), while the positive control therapy was recombinant human mature BMP-7 (BMP-7 or TDF-1). The end points are serum creatinine and BUN levels and histology.
TDFRP Compound (SEQ ID NO:45) was tested in male Sprague-Dawley rats (250 gm to 300 gm) to establish the dose range and the extent to which the compound is able to prophylactically and therapeutically ameliorate the renal toxic effects of cisplatin. The cisplatin dosing level was the chemotherapeutic level used in humans, 40 ug/kg bw. The end points were the level of creatinine in serum and kidney histology. […]
A stock solution (70 mg/ml) of TDFRP (SEQ ID NO:45) was made by dissolving it in 20 mM Acetate (ph 4.2). The stock solution was further diluted into phosphate buffered saline (PBS, pH 7.2) plus 5% Mannitol to compound concentrations of 14 mg/ml (28 mg/kg dose), 1.4 mg/ml (2.8 mg/kg dose) and 0.14 mg/ml (0.28 mg/kg dose).
Cisplatin was administered via i.p. injection (40 ug/kg bw) at time zero. Administration of therapeutic dosing of the compound, the BMP-7 positive control and vehicle negative control were by slow bolus i.v. injection through the tail vein at five time points: 2 hours before the administration of cisplatin, then at 24 hours, 48 hours, 72 hours and 96 hours post cisplatin administration. Blood samples were collected through the tail vein at time points of 0, 24, 48, 72 and 96 hours. At seven day sample was collected by exsanguination at sacrifice. Serum was prepared from the blood samples and analyzed for creatinine concentration. The serum concentration of creatinine, a byproduct of muscle activity that is released into the blood stream and cleared through the kidneys, is a marker of kidney function that tends to rise when kidney function becomes severely compromised (FIG. 21).
Upon sacrifice at seven days, the kidneys were harvested, fixed in formalin and imbedded in paraffin. They were then sagitally sectioned and stained in H&E stain. Kidney sections were also stained with anti-bodies against proliferating cell nuclear antigen (PCNA) (to identify sites of cell regeneration), macrophages, I-CAM-1, and smooth muscle. Also collected at sacrifice were tissues at and around the injection site (FIGS. 22, 25, 26).

Row | Molecule | tubule structure of the kidney (H&E sections) (2.8 mg/kg b.w.) | cisplatin-induced inflammation of the kidney cortex (2.8 mg/kg bw) | smooth muscle loss (2.8 mg/kg bw) | serum creatinine at the highest dose (28 mg/kg bw i.v.) | cisplatin-induced level of creatinine in serum (0.28, 2.8 and 28 mg/kg bw i.v.) | ICAM-1 in kidney sections | ICAM-1 in kidney sections (listed as SEQ ID NO 45) | proliferating cells / cellular regeneration (PCNA) | proliferating cells / cellular regeneration (PCNA) (listed as SEQ ID NO 45) | macrophages accumulating in the kidneys | macrophages accumulating in the kidneys (listed as SEQ ID NO 45) | nephrotoxic effects of cisplatin exposure (rat, in vivo) | renal tubular morphology (tubular atrophy, necrosis and dilation) (rat, in vivo) | peak serum creatinine levels in response to cisplatin (BMP-7 30 ug/kg bw and 200 ug/kg bw)
1 | CYFDDSSNVLCKKYRS (disulfide 1-11 (inferred); not fully specified) [SEQ ID NO:45] | improved | significantly reduced | reduced | more efficacious than the positive control; also recorded: return closer to base-line levels | reduces | reduced | less ICAM-positive material | increased the degree of cellular regeneration | Proliferating cells are observed | reduced | less macrophages | reduce or ameliorate | improved the morphology and structure of the kidney tubules | 
2 | BMP-7: recombinant human mature BMP-7 (BMP-7 or TDF-1), positive control therapy (protein) STGSKQRSQNRSKTPKNQEALRMANVAENSSSDQRQACKKHELYVSFRDLGWQDWIIAPEGYAAYYCEGECAFPLNSYMNATNHAIVQTLVHFINPETVPKPCCAPTQLNAISVLYFDDSSNVILKKYRNMVVRACGCH |  |  |  |  |  |  |  |  |  |  |  |  | Improvement of Renal Tubular Morphology | lower peak serum creatinine levels
